Test results from patent publication US11571423B2, “Small molecule modulators of human sting” (Curadev Pharma Limited, priority 2017, dated 2023).

Molecular target: hSTING(R232) (Homo sapiens, UniProt Q86WV6, H232R)
Experiment: Luciferase reporter assay in HEK293T-hSTING-Luciferase cells, R232 (wild type) human STING
Type: cell-based
Settings: 20 hr stimulation, read-out: R232 human activity (EC50 range)
Excerpt: Stable Cell Line Generation • a) Stable STING expressing cells—Stable HEK293T STING-expressing cell lines were generated using plasmids purchased from Invivogen, CA, USA, that contain STING cDNA cloned into the pUNO-1 vector under hEF1-HTLV promoter and containing the Blasticidin selection cassette. The plasmids hSTING(R232), hSTING(H232), hSTING(HAQ) were directly procured from Invivogen while hSTING (AQ) and hSTING (Q) were derived from hSTING(HAQ) and hSTING (R232) plasmids respectively by using a PCR based site directed mutagenesis method. These vectors were individually transfected into HEK293T cells using Lipofectamine (Invitrogen) and transfected cells were selected under Blasticidin selection. These transfected cells were further subjected to clonal selection using the limiting dilution method to obtain clonally pure populations of HEK cells transfected with each of the above mentioned human STING variants. Only those clones were selected in which ligand independent activation of STING was minimal. • b) Stable Luciferase reporter gene expressing cells—Stable HEK293T Luciferase reporter gene expressing cell lines were generated using pCDNA4 plasmids under an IRF-inducible promoter. This promoter is comprised of five tandem interferon-stimulated response elements (ISRE) fused to an ISG54 minimal promoter. This vector was transfected into HEK293T cells using Lipofectamine (Invitrogen) and transfected cells were selected under Zeocin selection. These transfected cells were further subjected to clonal selection using the limiting dilution method to obtain clonally pure populations of HEK cells transfected the Luciferase reporter construct. Only those clones were selected in which ligand independent induction of luciferase was minimal.
5×10^5 clonally selected HEK293T-hSTING-Luciferase cells were seeded in 384-well plates in growth medium and stimulated with novel compounds. After 20 hr of stimulation supernatant were removed and secretary reporter gene activity were measured using the Quanti-Luc detection system (Invivogen) on a Spectramax i3X luminometer.
In the tables below, EC50 value ranges for exemplary compounds are given.
All compounds were first tested in a primary screen to obtain a ‘fold-induction’ over baseline levels of protein activity.

Sequence of hSTING(R232) (Q86WV6 whole entry H232R): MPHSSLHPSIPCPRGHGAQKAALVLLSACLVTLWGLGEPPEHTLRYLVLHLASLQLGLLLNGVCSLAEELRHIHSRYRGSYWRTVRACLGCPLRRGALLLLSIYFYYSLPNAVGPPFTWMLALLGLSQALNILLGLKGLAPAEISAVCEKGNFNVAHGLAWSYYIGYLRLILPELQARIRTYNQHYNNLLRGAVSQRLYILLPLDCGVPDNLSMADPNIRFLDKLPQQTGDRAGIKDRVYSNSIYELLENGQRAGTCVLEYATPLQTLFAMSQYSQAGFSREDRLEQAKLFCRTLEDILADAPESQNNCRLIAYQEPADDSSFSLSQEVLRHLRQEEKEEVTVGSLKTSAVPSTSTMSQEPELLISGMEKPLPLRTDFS

Compound	EC50 [µM]
COc1cc(F)c(CNC(=O)c2ccc3c(c2)N(Cc2c(F)cccc2Cl)C(=O)N(C)C3)c(F)c1 [Example 60, 1-(2-chloro-6-fluorobenzyl)-N-(2,6-difluoro-4-methoxybenzyl)-3-methyl-2-oxo-1,2,3,4-tetrahydroquinazoline-7-carboxamide]	1 to 10
COc1cc(F)ccc1CNC(=O)c1ccc2c(c1)N(Cc1c(F)cccc1Cl)C(=O)N(C)C2 [Example 61, 1-(2-chloro-6-fluorobenzyl)-N-(4-flnoro-2-methoxybenzyl)-3-methyl-2-oxo-1,2,3,4-tetrahydroquinazoline-7-carboxamide]	> 10
CN1Cc2ccc(C(=O)NCc3c(F)cc(F)cc3F)cc2N(Cc2c(Cl)cccc2Cl)C1=O [Example 62, l-(2,6-dichlorobenzyl)-3-methyl-2-oxo-N-(2,4,6-trifluorobenzyl)-1,2,3,4-tetrahydroquinazoline-7-carboxamide]	1 to 10
COc1cccc(CN2C(=O)N(C)Cc3ccc(C(=O)NCc4c(F)cc(F)cc4F)cc32)c1F [Example 63, 1-(2-fluoro-3-methoxybenzyl)-3-methyl-2-oxo-N-(2,4,6-trifluorobenzyl)-1,2,3,4-tetrahydroquinazoline-7-carboxamide]	1 to 10
CN1Cc2ccc(C(=O)NCc3c(F)cc(F)cc3F)cc2N(Cc2cc(C3CC3)no2)C1=O [Example 64, 1-((3-cyclopropylisoxazol-5-yl)methyl)-3-methyl-2-oxo-N-(2,4,6-trifluorobenzyl)-1,2,3,4-tetrahydroquinazoline-7-carboxamide]	> 10
CN1Cc2ccc(C(=O)NCc3c(F)cc(F)cc3F)cc2N(Cc2cn3ccccc3n2)C1=O [Example 65, 1-(imidazo[1,2-a]pyridin-2-ylmethyl)-3-methyl-2-oxo-N-(2,4,6-trifluorobenzyl)-1,2,3,4-tetrahydroquinazoline-7-carboxamide]	> 10
Cc1ccc(Cl)c(CN2C(=O)N(C)Cc3ccc(C(=O)NCc4c(F)cc(F)cc4F)cc32)c1F [Example 66, 1-(6-chloro-2-fluoro-3-methylbenzyl)-3-methyl-2-oxo-N-(2,4,6-trifluorobenzyl)-1,2,3,4-tetrahydroquinazoline-7-carboxamide]	< 1
Cc1nn(C)c(CN2C(=O)N(C)Cc3ccc(C(=O)NCc4c(F)cc(F)cc4F)cc32)c1Br [Example 67, 1-((4-bromo-1,3-dimethyl-1H-pyrazol-5-yl)methyl)-3-methyl-2-oxo-N-(2,4,6-trifluorobenzyl)-1,2,3,4-tetrahydroquinazoline-7-carboxamide]	1 to 10
O=C(NCc1c(F)cc(F)cc1F)c1ccc2c(c1)N(Cc1c(F)cccc1Cl)C(=O)N(OCc1ccccc1)C2 [Example 68, 3-(benzyloxy)-1-(2-chloro-6-fluorobenzyl)-2-oxo-N-(2,4,6-trifluorobenzyl)-1,2,3,4-tetrahydroquinazoline-7-carboxamide]	> 10
O=C(NCc1c(F)cc(F)cc1F)c1ccc2c(c1)N(Cc1c(F)cccc1Cl)C(=O)N(O)C2 [Example 69, 1-(2-chloro-6-fluorobenzyl)-3-hydroxy-2-oxo-N-(2,4,6-trifluorobenzyl)-1,2,3,4-tetrahydroquinazoline-7-carboxamide]	> 10
CN1Cc2ccc(C(=O)NCc3c(F)cc(F)cc3F)cc2N(Cc2cc(F)cc(F)c2)S1(=O)=O [Example 70, 1-(3,5-difluorobenzyl)-3-methyl-N-(2,4,6-trifluorobenzyl)-3,4-dihydro-1H-benzo[c][1,2,6]thiadiazine-7-carboxamide 2,2-dioxide]	1 to 10
CN1Cc2ncc(C(=O)NCc3c(F)cc(F)cc3F)cc2N(Cc2c(F)cccc2Cl)C1=O [Example 71, 1-(2-chloro-6-fluorobenzyl)-3-methyl-2-oxo-N-(2,4,6-trifluorobenzyl)-1,2,3,4-tetrahydropyrido[3,2-d]pyrimidine-7-carboxamide]	1 to 10
CN1Cc2ncc(C(=O)NCc3c(F)cc(F)cc3F)cc2N(Cc2cc(F)cc(F)c2)C1=O [Example 72, 1-(3,5-difluorobenzyl)-3-methyl-2-oxo-N-(2,4,6-trifluorobenzyl)-1,2,3,4-tetrahydropyrido[3,2-d]pyrimidine-7-carboxamide]	1 to 10
CN1Cc2ncc(C(=O)NCc3cc4ccccc4o3)cc2N(Cc2c(F)cccc2Cl)C1=O [Example 73, N-(benzofuran-2-ylmethyl)-1-(2-chloro-6-fluorobenzyl)-3-methyl-2-oxo-1,2,3,4-tetrahydropyrido[3,2-d]pyrimidine-7-carboxamide]	> 10
C[C@H]1c2ccc(C(=O)NCc3c(F)cc(F)cc3F)cc2N(Cc2c(OCCOP(=O)(O)O)ccc(F)c2F)C(=O)N1C [Example 91, (S)-2-(2-((3,4-dimethyl-2-oxo-7-((2,4,6-trifluorobenzyl)carbamoyl)-3,4-dihydroquinazolin-1(2H)-yl)methyl)-3,4-difluorophenoxy)ethyl dihydrogen phosphate]	< 1
C[C@H]1c2ccc(C(=O)NCc3c(F)cc(F)cc3F)cc2N(Cc2ccc(OP(=O)(O)O)cc2F)C(=O)N1C [Example 92, (S)-4-((3,4-dimethyl-2-oxo-7-((2,4,6-trifluorobenzyl)carbamoyl)-3,4-dihydroquinazolin-1(2H)-yl)methyl)-3-fluorophenyl dihydrogen phosphate]	< 1
C[C@H]1c2ccc(C(=O)NCc3ccc(F)cc3OP(=O)(O)O)cc2N(Cc2c(F)cccc2Cl)C(=O)N1C [Example 93, (S)-2-((1-(2-chloro-6-fluorobenzyl)-3,4-dimethyl-2-oxo-1,2,3,4-tetrahydroquinazoline-7-carboxamido)methyl)-5-fluorophenyl dihydrogen phosphate]	< 1
C[C@H]1c2ccc(C(=O)NCc3c(F)cc(F)cc3F)cc2N(Cc2c(OP(=O)(O)O)ccc(F)c2F)C(=O)N1C [Example 99, (S)-2-((3,4-dimethyl-2-oxo-7-((2,4,6-trifluorobenzyl)carbamoyl)-3,4-dihydroquinazolin-1(2H)-yl)methyl)-3,4-difluorophenyl dihydrogen phosphate]	1 to 10
C[C@H]1c2ccc(C(=O)NCc3c(F)cc(F)cc3F)cc2N(Cc2c(F)ccc(OCCCOP(=O)(O)O)c2F)C(=O)N1C [Example 104, (S)-3-(3-((3,4-dimethyl-2-oxo-7-((2,4,6-trifluorobenzyl)carbamoyl)-3,4-dihydroquinazolin-1(2H)-yl)methyl)-2,4-difluorophenoxy)propyl dihydrogen phosphate]	< 1
C[C@H]1c2ccc(C(=O)NCc3c(F)cc(F)cc3F)cc2N(Cc2c(F)ccc(OC(=O)N(C)CCC(=O)OCc3ccccc3)c2Cl)C(=O)N1C [Example 140, (S)-Benzyl 3-((2-chloro-3-((3,4-dimethyl-2-oxo-7-((2,4,6-trifluorobenzyl)carbamoyl)-3,4-dihydroquinazolin-1(2H)-yl)methyl)-4-fluorophenoxy)carbonyl)(methylamino)propanoate]	> 10
C[C@H]1c2ccc(C(=O)NCc3c(F)cc(F)cc3F)cc2N(Cc2c(F)ccc(C(=O)O)c2F)C(=O)N1C [Example 142, (S)-3-((3,4-Dimethyl-2-oxo-7-((2,4,6-trifluorobenzyl)carbamoyl)-3,4-dihydroquinazolin-1(2H)-yl)methyl)-2,4-difluorobenzoic acid]	> 10
C[C@H]1c2ccc(C(=O)NCc3c(F)cc(F)cc3F)cc2N(Cc2c(F)ccc(C(=O)NCCO)c2F)C(=O)N1C [Example 143]	< 1
C[C@H]1c2ccc(C(=O)NCc3c(F)cc(O)cc3F)cc2N(Cc2c(F)cc(O)cc2F)C(=O)N1C [Example 150, (S)—N,1-bis(2,6-Difluoro-4-hydroxybenzyl)-3,4-dimethyl-2-oxo-1,2,3,4-tetrahydroquinazoline-7-carboxamide]	< 1
C[C@H]1c2ccc(C(=O)N(CCO)Cc3c(F)cc(F)cc3F)cc2N(Cc2c(F)cccc2Cl)C(=O)N1C [Example 151, (S)-1-(2-Chloro-6-fluorobenzyl)-N-(2-hydroxyethyl)-3,4-dimethyl-2-oxo-N-(2,4,6-trifluorobenzyl)-1,2,3,4-tetrahydroquinazoline-7-carboxamide]	> 10
CC1c2ccc(C(=O)NCc3c(F)cc(F)cc3F)cc2N(Cc2cc(F)cc(F)c2)C(=O)N1C (stereo not drawn) [Example 152, 1-(3,5-difluorobenzyl)-3,4-dimethyl-2-oxo-N-(2,4,6-trifluorobenzyl)-1,2,3,4-tetrahydroquinazoline-7-carboxamide]	< 1
COc1cccc(F)c1CN1C(=O)N(C)C(C)c2ccc(C(=O)NCc3c(F)cc(F)cc3F)cc21 (stereo not drawn) [Example 155, 1-(2-fluoro-6-methoxybenzyl)-3,4-dimethyl-2-oxo-N-(2,4,6-trifluorobenzyl)-1,2,3,4-tetrahydroquinazoline-7-carboxamide]	1 to 10
CC1c2ccc(C(=O)NCc3c(F)cc(F)cc3F)cc2N(Cc2cc(F)cc(F)c2)C(=O)N1C (stereo not drawn) [Example 156, 1-(3,5-difluorobenzyl)-3,4-dimethyl-2-oxo-N-(2,4,6-trifluorobenzyl)-1,2,3,4-tetrahydroquinazoline-7-carboxamide]	< 1
